In paper PMC11662004 (Communications Chemistry, 2024):
“And” between values parts separate entries of the source, which are not always exact repeats. Equal values may be shown once. Read-outs that look alike come from different tables or passages of the source.

Columns and labels:
NgTet1 [1] = molecular target: T1, NgTet1 (Naegleria gruberi, UniProt D2W6T1); format: biochemical; settings: for 2OG Concentration / Succinate Concentration: 20 μM 5HC DNA
T1 construct: His6-tagged full-length Naegleria gruberi NgTet1 (321 a. a.) protein with a thrombin cleavage site; made in house; host or cells: E. coli BL21(DE3)
T1 sequence (D2W6T1 1-321): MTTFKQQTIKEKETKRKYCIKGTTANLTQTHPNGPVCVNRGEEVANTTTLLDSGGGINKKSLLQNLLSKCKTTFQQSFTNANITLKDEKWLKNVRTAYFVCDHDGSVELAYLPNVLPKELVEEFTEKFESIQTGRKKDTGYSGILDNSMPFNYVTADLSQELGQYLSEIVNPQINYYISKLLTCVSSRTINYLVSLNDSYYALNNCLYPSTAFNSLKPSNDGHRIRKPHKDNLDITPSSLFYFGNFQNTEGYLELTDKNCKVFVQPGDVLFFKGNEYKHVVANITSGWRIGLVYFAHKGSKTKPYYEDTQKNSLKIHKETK
Method: Double-stranded 12 bp DNA oligomers were added at a final concentration of 20 µM. […]
Double-stranded DNA oligomers were added at a final concentration of 20 µM. […]
All ^1H NMR spectra were recorded at 25 °C using D2O as a reference for internal deuterium lock on a Bruker Avance III 700 MHz equipped with an inverse TCI cryoprobe in 3 or 5 mm diameter tubes with a total sample volume of 160 or 565 μL, respectively. The water signal was reduced using Perfect Echo excitation sculpting suppression. Chemical shifts are reported in ppm relative to D2O (δH = 4.70 ppm).
Spectrometer settings were determined using a control sample containing all reaction components excluding enzyme. TET enzyme was added to an identical sample, and the resulting assay mixture was transferred to an NMR tube before deposition into the instrument. […] Spectrum recordings were carried out consecutively without delay. Data were processed using automated routines on MestReNova v14.2.0; signals of interest were integrated with absolute intensity scaling. ^1H NMR time courses reported in figures are representative results from two or three independent replicates.

NgTet1 [2] = molecular target: T1, NgTet1; test: AlphaScreen competition assay with biotinylated 5mC dsDNA; format: binding; settings: 100 nM NgTet1, 50 nM 5mC dsDNA
Method: (§1) AlphaScreen™ Histidine (Nickel Chelate) Detection Kit was used to evaluate displacement of […] (^5mC dsDNA)[33],[34]. Competitor DNA oligomers in assay buffer were manually dispensed onto 384-well ProxiPlates (5 μL) in a 2-fold dilution series. His6-tagged NgTet1 or TET2CDΔLCI in assay buffer was added (5 μL), and the mixture was pre-incubated with the competitor DNA at room temperature for 10 min. Cofactors and biotinylated ^5mC dsDNA in assay buffer were added (5 μL), and the mixture was further incubated at room temperature for 10 min. A mixture of AlphaScreen beads (1:62.5 dilution) in assay buffer was added (5 μL), and the full mixture was incubated at room temperature for 1 h. The final mixtures (20 μL) contained 100 nM NgTet1 (50 nM ^5mC dsDNA) or 12.5 nM TET2CDΔLCI (12.5 nM ^5mC dsDNA), 50 μM sodium L-ascorbate, 5 μM (NH4)2Fe(SO4)2, and 5 μM disodium NOG in assay buffer (50 mM HEPES [pH 7.3], 150 mM NaCl, 0.1% v/v BSA, 0.01% v/v Tween® 20). For the assay interference counter screen, His6-tagged TET protein and biotinylated ^5mC dsDNA were replaced with 1.6 nM biotinylated His6 peptide. Chemiluminescence was measured on a PHERAstar FS/FSX (BMG Labtech) equipped with an AlphaScreen 680 570 module. All AlphaScreen bead manipulations were performed under subdued lighting. Inhibition data was normalised to reactions containing no competitor and fitted using “log(inhibitor) vs. response - Variable slope (four parameters)” non-linear regression model on GraphPad Prism 5. […]
(§2) Fig. S5 TETs bind to DNA in a sequence- and modification-independent manner. A binding assay between a biotinylated 5mC dsDNA oligomer and His6-tagged TET was developed using AlphaScreen Histidine (Nickel Chelate) assay. […] Conditions: a 100 nM NgTet1 (50 nM 5mC dsDNA), b 12.5 nM TET2CDΔLCI (12.5 nM 5mC dsDNA), c 1.6 nM biotinylated His6 peptide. Each assay was supplemented with 50 μM sodium L-ascorbate, 5 μM (NH4)2Fe(SO4)2, and 5 μM disodium NOG. Data shown as the mean of three to four experimental replicates (n = 3–4; mean ± SD); tabulated data reported as the mean of two independent replicates (n = 2).

TET2CDΔLCI = molecular target: T2, TET2CDΔLCI (Homo sapiens, UniProt Q6N021); test: as above; format: binding; settings: 12.5 nM TET2CDΔLCI, 12.5 nM 5mC dsDNA
T2 construct: FLAG-[thrombin cleavage site]-SUMO (N); made in house; host or cells: E. coli
Method: as §1, §2

5HC DNA: non-methylated DNA of the same sequence, 5'-ACC ACC GGT GGT-3', non-substrate (DNA ACCACCGGTGGT; DNA, backbone not given here)
2OG Concentration (NgTet1 [1]; time 6.31667 min): 88.5781 µM
Succinate Concentration (NgTet1 [1]; time 6.31667 min): 11.4219 µM
2OG Concentration (NgTet1 [1]; time 9.38333 min): 79.2717 µM
Succinate Concentration (NgTet1 [1]; time 9.38333 min): 20.7283 µM
2OG Concentration (NgTet1 [1]; time 12.45 min): 72.6874 µM
Succinate Concentration (NgTet1 [1]; time 12.45 min): 27.3126 µM
2OG Concentration (NgTet1 [1]; time 15.5167 min): 67.5286 µM
Succinate Concentration (NgTet1 [1]; time 15.5167 min): 32.4714 µM
2OG Concentration (NgTet1 [1]; time 18.6 min): 63.1853 µM
Succinate Concentration (NgTet1 [1]; time 18.6 min): 36.8147 µM
V0 NgTet1 (NgTet1 [1]; 20 µM DNA, 100 μM 2OG, 5 μM NgTet1): 1.30 µM/min
2-OG turnover rate (NgTet1 [1]; 2-OG 50 uM, 20 µM DNA): 1.2756 µM/min and 1.3302 µM/min
2-OG turnover rate (NgTet1 [1]; 2-OG 100 uM, 20 µM DNA): 2.0544 µM/min and 2.2614 µM/min
2-OG turnover rate (NgTet1 [1]; 2-OG 200 uM, 20 µM DNA): 3.7602 µM/min and 3.5166 µM/min
2-OG turnover rate (NgTet1 [1]; 2-OG 400 uM, 20 µM DNA): 4.4538 µM/min and 4.2732 µM/min
2-OG turnover rate (NgTet1 [1]; 2-OG 700 uM, 20 µM DNA): 4.9836 µM/min and 5.0838 µM/min
2-OG turnover rate (NgTet1 [1]; 2-OG 1000 uM, 20 µM DNA): 5.3268 µM/min and 5.3442 µM/min
2-OG turnover rate (NgTet1 [1]; 2-OG 2000 uM, 20 µM DNA): 5.8116 µM/min and 5.7954 µM/min
2-OG turnover rate (NgTet1 [1]; 2-OG 4000 uM, 20 µM DNA): 6.75 µM/min and 6.036 µM/min
succinate (NgTet1 [1]; n = 1, time (min) 5HC DNA 5.9, AT DNA 5.81667, 5mC DNA 5.78333): 7.407 µM
succinate (NgTet1 [1]; n = 1, time (min) 5HC DNA 8.98333, AT DNA 8.9, 5mC DNA 8.86667): 12.5672 µM
succinate (NgTet1 [1]; n = 1, time (min) 5HC DNA 12.0667, AT DNA 11.9833, 5mC DNA 11.95): 16.4606 µM
succinate (NgTet1 [1]; n = 1, time (min) 5HC DNA 15.1333, AT DNA 15.0667, 5mC DNA 15.0333): 19.1176 µM
succinate (NgTet1 [1]; n = 1, time (min) 5HC DNA 18.2167, AT DNA 18.1333, 5mC DNA 18.1167): 21.6247 µM
succinate (NgTet1 [1]; n = 1, time (min) 5HC DNA 21.3667, AT DNA 21.2333, 5mC DNA 21.2): 24.6175 µM
succinate (NgTet1 [1]; n = 1, time (min) 5HC DNA 24.45, AT DNA 24.3167, 5mC DNA 24.2833): 26.0885 µM
succinate (NgTet1 [1]; n = 1, time (min) 5HC DNA 27.5333, AT DNA 27.3833, 5mC DNA 27.3667): 28.2137 µM
succinate (NgTet1 [1]; n = 1, time (min) 5HC DNA 30.6, AT DNA 30.4667, 5mC DNA 30.45): 29.4575 µM
succinate (NgTet1 [1]; n = 1, time (min) 5HC DNA 33.6833, AT DNA 33.55, 5mC DNA 33.5333): 31.2095 µM
succinate (NgTet1 [1]; n = 1, time (min) 5HC DNA 36.7667, AT DNA 36.6333, 5mC DNA 36.6167): 32.5108 µM
succinate (NgTet1 [1]; n = 1, time (min) 5HC DNA 39.85, AT DNA 39.7167, 5mC DNA 39.7): 33.8071 µM
succinate (NgTet1 [1]; n = 1, time (min) 5HC DNA 42.9333, AT DNA 42.8, 5mC DNA 42.7833): 34.7457 µM
succinate (NgTet1 [1]; n = 1, time (min) 5HC DNA 46.0167, AT DNA 45.8833, 5mC DNA 45.8667): 35.7895 µM
succinate (NgTet1 [1]; n = 1, time (min) 5HC DNA 49.0833, AT DNA 48.9667, 5mC DNA 48.95): 37.2861 µM
succinate (NgTet1 [1]; n = 1, time (min) 5HC DNA 52.1667, AT DNA 52.05, 5mC DNA 52.0333): 38.1768 µM
succinate (NgTet1 [1]; n = 1, time (min) 5HC DNA 55.25, AT DNA 55.1167, 5mC DNA 55.1167): 38.5101 µM
succinate (NgTet1 [1]; n = 1, time (min) 5HC DNA 58.3333, AT DNA 58.2, 5mC DNA 58.2): 39.4428 µM
succinate (NgTet1 [1]; n = 1, time (min) 5HC DNA 61.4, AT DNA 61.2833, 5mC DNA 61.2833): 40.1071 µM
succinate (NgTet1 [1]; n = 1, time (min) 5HC DNA 64.4833, AT DNA 64.3833, 5mC DNA 64.35): 40.323 µM
succinate (NgTet1 [1]; n = 2, time (min) 5HC DNA 5.81667, AT DNA 5.61667, 5mC DNA 6.08333): 6.9553 µM
succinate (NgTet1 [1]; n = 2, time (min) 5HC DNA 8.88333, AT DNA 8.7, 5mC DNA 9.16667): 12.0978 µM
succinate (NgTet1 [1]; n = 2, time (min) 5HC DNA 12.0333, AT DNA 11.7833, 5mC DNA 12.25): 15.5692 µM
succinate (NgTet1 [1]; n = 2, time (min) 5HC DNA 15.1167, AT DNA 14.8667, 5mC DNA 15.3167): 18.665 µM
succinate (NgTet1 [1]; n = 2, time (min) 5HC DNA 18.1833, AT DNA 17.9333, 5mC DNA 18.4): 21.5442 µM
succinate (NgTet1 [1]; n = 2, time (min) 5HC DNA 21.2667, AT DNA 21.0167, 5mC DNA 21.4833): 23.7344 µM
succinate (NgTet1 [1]; n = 2, time (min) 5HC DNA 24.35, AT DNA 24.1, 5mC DNA 24.5667): 25.3146 µM
succinate (NgTet1 [1]; n = 2, time (min) 5HC DNA 27.4333, AT DNA 27.1833, 5mC DNA 27.65): 27.7156 µM
succinate (NgTet1 [1]; n = 2, time (min) 5HC DNA 30.5167, AT DNA 30.2667, 5mC DNA 30.7333): 29.219 µM
succinate (NgTet1 [1]; n = 2, time (min) 5HC DNA 33.6, AT DNA 33.35, 5mC DNA 33.8167): 30.6366 µM
succinate (NgTet1 [1]; n = 2, time (min) 5HC DNA 36.6833, AT DNA 36.4333, 5mC DNA 36.9): 31.7592 µM
succinate (NgTet1 [1]; n = 2, time (min) 5HC DNA 39.7667, AT DNA 39.5167, 5mC DNA 39.9833): 33.6089 µM
succinate (NgTet1 [1]; n = 2, time (min) 5HC DNA 42.8333, AT DNA 42.6, 5mC DNA 43.0667): 34.5619 µM
succinate (NgTet1 [1]; n = 2, time (min) 5HC DNA 45.9167, AT DNA 45.6833, 5mC DNA 46.15): 35.6503 µM
succinate (NgTet1 [1]; n = 2, time (min) 5HC DNA 49, AT DNA 48.7667, 5mC DNA 49.2333): 37.1492 µM
succinate (NgTet1 [1]; n = 2, time (min) 5HC DNA 52.0833, AT DNA 51.85, 5mC DNA 52.3167): 37.4628 µM
succinate (NgTet1 [1]; n = 2, time (min) 5HC DNA 55.1667, AT DNA 54.9333, 5mC DNA 55.4): 38.3288 µM
succinate (NgTet1 [1]; n = 2, time (min) 5HC DNA 58.25, AT DNA 58.0167, 5mC DNA 58.4833): 38.622 µM
succinate (NgTet1 [1]; n = 2, time (min) 5HC DNA 61.3333, AT DNA 61.1, 5mC DNA 61.5667): 40.1844 µM
succinate (NgTet1 [1]; n = 2, time (min) 5HC DNA 64.4167, AT DNA 64.1667, 5mC DNA 64.65): 40.2655 µM
Relative V0 NgTet1 (NgTet1 [1]; relative to reactions without DNA): 3.6
Vmax^app (NgTet1 [1]; with 20 µM 5HC DNA): 6.47 µM/min
kcat^app (NgTet1 [1]; with 20 µM 5HC DNA): 0.0217 s⁻¹
IC50 (NgTet1 [2]): 57.5 µM
competition pIC50 NgTet1 (NgTet1 [2]; n = 2): 4.24
IC50 (TET2CDΔLCI): 8.91 µM
competition pIC50 TET2CDΔLCI (TET2CDΔLCI; n = 2): 5.05
